{"source": "patent US12350269B2", "about": "(Alexion Pharmaceuticals, Inc., priority 2015, dated 2025)", "key": {"AMPK": {"target": "AMPK", "assay": "Purified kinase assay (Millipore)", "format": "biochemical", "settings": "300 nM ATP"}, "SYK and JAK signaling": {"test_system": "SYK and JAK signaling", "assay": "Phase 1 study: whole blood PD, SYK and JAK signaling", "format": "in vivo, human", "experimental": "Human Whole Blood Assays: Inhibition of SYK- and JAK-dependent and independent signaling was determined by stimulating human whole blood with various agonists against BCR and cytokine receptors. 100 μL aliquots of heparinized healthy human whole blood was stimulated as previously described (Coffey et al, J. of Pharm. and Experimental Therapeutics, 351:538-548, 2014), using an 8-point concentration curve to determine IC50's. Signaling and activation responses were determined by Fluorescence-activated cell sorting (“FACS”). For the clinical trial, whole blood samples were collected prior to and after dosing. Percent inhibition was calculated by normalizing to the pre-dose stimulation response.\nPharmacokinetics (“PK”), pharmacodynamics (“PD”), and safety were monitored. Response was assessed by standard criteria. The level of inhibition of SYK and JAK was determined using a variety of whole blood assays measuring signaling via receptors for the B-cell antigen, IL2, IL4, IL6, and GM-CSF. Serum markers of tumor burden, including CCL3, CCL4, and other markers of inflammation (β2M and CRP), were also being measured."}, "[1]": {"assay": "Phase 1 study: pharmacokinetics following oral dosing", "format": "in vivo, human", "description": "Study initiated at 15 mg QD (once daily) and dose-escalated in a 3+3 design with a 28 day safety window. Patients received a single dose on day 1 for 72 hour PK evaluation. Continuous dosing was then initiated on day 4.\nA 3+3 dose escalation study with 28-day cycles was carried out; the doses studied ranged from 15 mg to 65 mg once daily and up to 45 mg twice daily. Patients received a single dose on day 1 for 72 hour PK evaluation. Continuous dosing was initiated on day 4. 43 patients with CLL/SLL or B cell NHL were dosed. Median age was 67 years (range 23-85) and median prior therapies (tx) was 3 (range 1-8)."}, "JAK1/3": {"test_system": "JAK1/3", "assay": "Healthy normal human whole blood assay: T-cell, IL2 stimulation, pSTAT5 Y694 readout", "format": "cell-based"}, "JAK2": {"target": "T1, JAK2 (Homo sapiens, UniProt O60674)", "T1 construct": "purchased Millipore", "assay": "Purified kinase assay (Millipore)", "format": "biochemical", "settings": "300 nM ATP"}, "[2]": {"test_system": "IL-4 induced STAT6 phosphorylation", "assay": "Primary CLL cells: IL-4 induced signalling", "format": "cell-based, human", "experimental": "Isolated CLL cells were cultured in RPMI-1640 with 15% fetal bovine serum (Gibco, Grand Island, NY, USA), penicillin (100 IU), and streptomycin (100 μg/mL), at a density of 1×10^7 cells/mL in the presence or absence of […] CpG, 100 ng/mL CD40L, 10 ng/mL IL-4. Anti-IgM stimulation was conducted with plate-bound anti-IgM (10 μg/mL). CLL cells were stimulated with 10 ng/mL IL-6 (R&D Systems, Minneapolis, MN), to detect the phosphorylation of JAK1/JAK2 (Cell Signaling Technology, Danvers, MA) and STAT3 (Cell Signaling Technology, Danvers, MA, USA)."}, "[3]": {"test_system": "BTK^C481S-transfected TMD8 cells", "assay": "Cell growth of transfected TMD8 cells (Muse Count & Viability)", "format": "cell-based", "settings": "250 nM, 7 days", "excerpt": "Cell transfection, cell count and viability assay: TMD8 cells were transfected with constructs of WT BTK or BTK^C481S mutants using kit V, Program U-13 on Amaxa Nucleofector, according to the manufacturer's protocols (Amaxa, Cologne, Germany). After transfection, the cells were co-cultured with NKTert cells in a 24-well plate for 24 hrs for recovery."}, "[4]": {"settings": "15 mg/twice daily oral, Table 4, n=28"}, "[5]": {"settings": "15 mg/twice daily, Table 5, n=43"}, "[6]": {"settings": "20 mg/twice daily oral, Table 4, n=28"}, "[7]": {"settings": "20 mg/twice daily, Table 5, n=43"}, "[8]": {"settings": "45 mg/day oral, PK outlier removed, Table 4, n=28"}, "[9]": {"settings": "45 mg/twice daily, Table 5, n=43"}, "[10]": {"settings": "100 mg/day (one patient), Table 5"}}, "note": "Where two headings read alike, the source gives them in different places."}
{"molecule": "CCS(=O)(=O)N1CCN(c2ccc(Nc3ncc(C(N)=O)c(NC4CC4)n3)cc2)CC1", "note": "[cerdulatinib, 4-(cyclopropylamino)-2-(4-(4-(ethylsulfonyl)piperazin-1-yl)phenylamino)pyrimidine-5-carboxamide]", "values": [{"measurement": "IC50", "setting": "AMPK", "value": 6, "unit": "nM"}, {"measurement": "inhibition of SYK and JAK at SS Cmin in peripheral blood assays", "setting": "SYK and JAK signaling; 45 mg BID dose", "value": "complete inhibition"}, {"measurement": "inhibition at 40 mg", "setting": "SYK and JAK signaling; Homo sapiens, Lymphocyte, 672 h, day 28 of cycle 1, plasma about 0.6 to 1 μM (Cmin of 40 mg dose), read-out: saturating inhibition of SYK and JAK in circulating lymphocytes", "value": "80 to 90", "unit": "%"}, {"measurement": "inhibition of SYK and JAK in peripheral whole blood assays", "setting": "SYK and JAK signaling; exposures of the 30 mg once daily dose", "value": "approximately 50%"}, {"measurement": "maximal inhibition of SYK/JAK signaling", "setting": "SYK and JAK signaling; in vivo", "value": "greater than 80%"}, {"measurement": "inhibition of SYK and JAK safely achieved", "setting": "SYK and JAK signaling; oral dosing in patients, multiple cycles of therapy", "value": "> 90", "unit": "%"}, {"measurement": "AUC_tau", "setting": "[1]; 15 mg/day oral, Table 4, n=28", "value": "4.5 ± 0.8", "unit": "µM·h"}, {"measurement": "SS Cave", "setting": "[1]; 15 mg/day oral, Table 4, n=28", "value": "190 ± 30", "unit": "nM"}, {"measurement": "SS Cmin", "setting": "[1]; 15 mg/day oral, Table 4, n=28", "value": "120 ± 40", "unit": "nM"}, {"measurement": "T1/2", "setting": "[1]; 15 mg/day oral, Table 4, n=28", "value": "11.5 ± 3.9", "unit": "h"}, {"measurement": "AUC_tau", "setting": "[1]; 15 mg/day, Table 5, n=43", "value": "4.5 ± 0.8", "unit": "µM·h"}, {"measurement": "SS Cave", "setting": "[1]; 15 mg/day, Table 5, n=43", "value": "190 ± 30", "unit": "nM"}, {"measurement": "SS Cmin", "setting": "[1]; 15 mg/day, Table 5, n=43", "value": "120 ± 40", "unit": "nM"}, {"measurement": "T1/2", "setting": "[1]; 15 mg/day, Table 5, n=43", "value": "11.5 ± 3.9", "unit": "h"}, {"measurement": "SS Cave", "setting": "[1]; [4]", "value": "390 ± 110", "unit": "nM"}, {"measurement": "SS Cmin", "setting": "[1]; [4]", "value": "290 ± 110", "unit": "nM"}, {"measurement": "SS Cave", "setting": "[1]; [5]", "value": "390 ± 110", "unit": "nM"}, {"measurement": "SS Cmin", "setting": "[1]; [5]", "value": "290 ± 110", "unit": "nM"}, {"measurement": "SS Cave", "setting": "[1]; [6]", "value": "520 ± 90", "unit": "nM"}, {"measurement": "SS Cmin", "setting": "[1]; [6]", "value": "380 ± 20", "unit": "nM"}, {"measurement": "SS Cave", "setting": "[1]; [7]", "value": "520 ± 90", "unit": "nM"}, {"measurement": "SS Cmin", "setting": "[1]; [7]", "value": "380 ± 20", "unit": "nM"}, {"measurement": "SS Cave", "setting": "[1]; 30 mg/day oral, Table 4, n=28", "value": "310 ± 120", "unit": "nM"}, {"measurement": "SS Cmin", "setting": "[1]; 30 mg/day oral, Table 4, n=28", "value": "210 ± 120", "unit": "nM"}, {"measurement": "SS Cave", "setting": "[1]; 30 mg/day, Table 5, n=43", "value": "310 ± 120", "unit": "nM"}, {"measurement": "SS Cmin", "setting": "[1]; 30 mg/day, Table 5, n=43", "value": "210 ± 120", "unit": "nM"}, {"measurement": "steady-state Cmin exposure at plateau", "setting": "[1]; 40 mg to 100 mg oral once daily", "value": "about 0.7 μM"}, {"measurement": "SS Cave", "setting": "[1]; 40 mg/day oral, Table 4, n=28", "value": "1140 ± 30", "unit": "nM"}, {"measurement": "SS Cmin", "setting": "[1]; 40 mg/day oral, Table 4, n=28", "value": "870 ± 70", "unit": "nM"}, {"measurement": "SS Cave", "setting": "[1]; 40 mg/day, Table 5, n=43", "value": "1140 ± 30", "unit": "nM"}, {"measurement": "SS Cmin", "setting": "[1]; 40 mg/day, Table 5, n=43", "value": "870 ± 70", "unit": "nM"}, {"measurement": "SS Cmin", "setting": "[1]; 45 mg BID dose", "value": "about 1.5 μM"}, {"measurement": "Cave", "setting": "[1]; 45 mg BID, n=20", "value": "1400 ± 700", "unit": "nM"}, {"measurement": "Cmin", "setting": "[1]; 45 mg BID, n=20", "value": "1270 ± 600", "unit": "nM"}, {"measurement": "AUC_tau", "setting": "[1]; [8]", "value": "26.6 ± 13.9", "unit": "µM·h"}, {"measurement": "SS Cave", "setting": "[1]; [8]", "value": "1110 ± 600", "unit": "nM"}, {"measurement": "SS Cmin", "setting": "[1]; [8]", "value": "820 ± 600", "unit": "nM"}, {"measurement": "AUC_tau", "setting": "[1]; 45 mg/day, Table 5, n=43", "value": "26.6 ± 13.9", "unit": "µM·h"}, {"measurement": "SS Cave", "setting": "[1]; 45 mg/day, Table 5, n=43", "value": "1110 ± 600", "unit": "nM"}, {"measurement": "SS Cmin", "setting": "[1]; 45 mg/day, Table 5, n=43", "value": "820 ± 600", "unit": "nM"}, {"measurement": "Cmax", "setting": "[1]; 45 mg/day, Table 5, n=43, read-out: SS Cmax", "value": "1690 ± 600", "unit": "nM"}, {"measurement": "SS Cave", "setting": "[1]; [9]", "value": "1500 ± 450", "unit": "nM"}, {"measurement": "SS Cmin", "setting": "[1]; [9]", "value": "1480 ± 330", "unit": "nM"}, {"measurement": "SS Cave", "setting": "[1]; 50 mg/day oral, Table 4, n=28", "value": "1310 ± 410", "unit": "nM"}, {"measurement": "SS Cmin", "setting": "[1]; 50 mg/day oral, Table 4, n=28", "value": "900 ± 140", "unit": "nM"}, {"measurement": "SS Cave", "setting": "[1]; 50 mg/day, Table 5, n=43", "value": "990 ± 620", "unit": "nM"}, {"measurement": "SS Cmin", "setting": "[1]; 50 mg/day, Table 5, n=43", "value": "790 ± 370", "unit": "nM"}, {"measurement": "Cmax", "setting": "[1]; 50 mg/day, Table 5, n=43, read-out: SS Cmax", "value": "1570 ± 940", "unit": "nM"}, {"measurement": "steady state Cmin", "setting": "[1]; 65 mg dose", "value": "approximately 1 μM"}, {"measurement": "AUC_tau", "setting": "[1]; 65 mg/day, Table 5, n=43", "value": "24.2 ± 0.7", "unit": "µM·h"}, {"measurement": "SS Cave", "setting": "[1]; 65 mg/day, Table 5, n=43", "value": "1010 ± 30", "unit": "nM"}, {"measurement": "SS Cmin", "setting": "[1]; 65 mg/day, Table 5, n=43", "value": "760 ± 40", "unit": "nM"}, {"measurement": "Cmax", "setting": "[1]; 65 mg/day, Table 5, n=43, read-out: SS Cmax", "value": "1670 ± 90", "unit": "nM"}, {"measurement": "SS Cave", "setting": "[1]; [10]", "value": 680, "unit": "nM"}, {"measurement": "SS Cmin", "setting": "[1]; [10]", "value": 370, "unit": "nM"}, {"measurement": "average steady state (SS) Cave", "setting": "[1]; 40-100 mg QD doses", "value": "1070 ± 440", "unit": "nM"}, {"measurement": "average steady state (SS) Cmin", "setting": "[1]; 40-100 mg QD doses, plateau", "value": "770 ± 410", "unit": "nM"}, {"measurement": "Cmax", "setting": "[1]; human, plasma, oral, 40 mg QD, read-out: steady-state concentrations Cmin to Cmax", "value": "1000 to 2000", "unit": "nM"}, {"measurement": "plasma concentrations safely achieved in cancer patients", "setting": "[1]; once daily oral dosing", "value": "above 2 μM"}, {"measurement": "steady-state Cmin", "setting": "[1]; once daily oral dosing, cancer patients", "value": "~1000", "unit": "nM"}, {"measurement": "IC50", "setting": "JAK1/3", "value": 200, "unit": "nM"}, {"measurement": "IC50", "setting": "JAK2", "value": 6, "unit": "nM"}, {"measurement": "IL-4 induced STAT6 phosphorylation", "setting": "[2]", "value": "abrogated"}, {"measurement": "IL-4 increased surface IgM expression", "setting": "[2]; 24 hours, in the presence of ZVAD", "value": "inhibited"}, {"measurement": "cell growth", "setting": "[3]", "value": "effectively blocked"}]}
